Where a name gives a salt, the structure may show the parent alone. Read-outs that look alike come from different tables or passages of the source.
Tests used:
[1] = cited from earlier work
[2] = target: T1, human recombinant GABAA α5β3γ2 receptor (Homo sapiens (Human), UniProt P18507+P31644); test: Binding assay, [3H]Ro151788 displacement on HEK cell membranes; settings: [3H]Ro151788 0.5 nM, 60 minutes at 4° C., Cheng-Prusoff; read-out: hGABAA α5 Ki
Method: The GABAA α5β3γ2 protein used for the receptor binding assay was derived from membranes produced from HEK cells (Millipore CYL3073) expressing the human recombinant GABAA α5β3γ2 receptor. Cells were stored and cultured in-house according to the instructions provided by the vendor (Millipore). Cell pellet was homogenized in 10 times modified Krebs Henseleit buffer (membrane preparation buffer): 20 mM Tris, 120 mM NaCl, 100 mM KCl, 25 mM CaCl2 and 25 mM MgCl2 pH=7.4 at 4° C. using Ultra Turrax (Janke&Kunkel) maximal speed for 15 seconds. The homogenate was centrifuged at 40,000 g for 30 minutes at 4° C. Supernatant was discarded and the resulting pellet was washed in membrane preparation buffer. Pellet was resuspended in membrane preparation buffer and aliquots of 1.4 mL ampules were stored at −70° C. until use.
Receptor binding assays were performed in 96-well format in deep-well plates. For each 96-well plate one ampule of membrane homogenate was thawed and diluted in binding buffer (50 mM Tris pH=7.4, 100 mM KCl) and 200 μL was dispensed into each well. Radioligand [^3H]Ro151788 (Perkin Elmer: NET757250UC) was prepared in binding buffer and added to each well in 50 μL volume to give final concentration of 0.5 nM. Test compounds in suitable concentration(s) were added in additional 50 μL. The final assay volume was 300 μL. Incubation was carried out for 60 minutes at 4° C. For non-specific binding 10 μM unlabeled diazepam was used. […] The plate was dried at 40° C. for an hour and 40 μL Microscint (Perkin Elmer) scintillation cocktail was added to each well. The plate was read in Microbeta (Perkin Elmer).
The specific radioligand binding (SB) was defined as the difference between total binding (Tot) and the non-specific binding (NSB). Results are expressed as a percent inhibition of specific binding obtained in the presence of compound of interest.
For IC50 and Ki determination a minimum of six drug concentrations in triplicate were used. […] Ki values (i.e., inhibition constants) were calculated using the Cheng-Prusoff equation Ki=IC5O/[1+(L/KD)], where [L] is the radioligand concentration and KD the affinity of the labelled ligand for receptor. KD was determined from the Saturation analyses.

[3] = target: T1, human recombinant GABAA α5β3γ2 receptor; test: Functional assay, QPatch automated whole-cell patch clamp, modulation of GABA-evoked current; format: cell-based; settings: read-out: hGABAA α5 efficacy (percentage modulation of GABA-evoked peak current)
Method: Human HEK293 cell lines expressing GABAAα5β3γ2 receptors were used in functional assays using the QPatch automated patch clamp system.
HEK293 cell lines stably expressing human recombinant GABAA α5β3γ2 receptor subunits (Millipore, CYL3053) were cultured in DMEM supplemented with 10% FBS (Gibco), passed two times per week and plated on Petri dishes previously coated with poly-d-lysine.
Automated whole-cell patch clamp recordings were made from cells 2-4 days after plating.
Inward currents were evoked at a holding potential of −80 mV by 3-s-long applications of the control agonist GABA at 1 μM at 2-4-min intervals first in concentration-matched DMSO (0.1 or 0.3%) control solution for five times, then in the presence of the test compound for four times, finally in control solution again for three times (wash-out). At the end of the experiment 100 μM GABA was applied to saturate the GABA-response and to assess the efficacy of the control GABA application. Current signals were low-pass filtered at 100 Hz and recorded at a sampling rate of 1 kHz.
The percentage modulation was calculated from the comparison of GABA-evoked peak current amplitudes in the presence and absence of the test compound.

[4] = mouse stress models and aged mice; cited from earlier work
[5] = rats, developmental models of schizophrenia; cited from earlier work
[6] = low dose; cited from earlier work
[7] = test compound 1 μM, GABA 1 μM, holding potential −80 mV

T1 sequence (P31644 32-462): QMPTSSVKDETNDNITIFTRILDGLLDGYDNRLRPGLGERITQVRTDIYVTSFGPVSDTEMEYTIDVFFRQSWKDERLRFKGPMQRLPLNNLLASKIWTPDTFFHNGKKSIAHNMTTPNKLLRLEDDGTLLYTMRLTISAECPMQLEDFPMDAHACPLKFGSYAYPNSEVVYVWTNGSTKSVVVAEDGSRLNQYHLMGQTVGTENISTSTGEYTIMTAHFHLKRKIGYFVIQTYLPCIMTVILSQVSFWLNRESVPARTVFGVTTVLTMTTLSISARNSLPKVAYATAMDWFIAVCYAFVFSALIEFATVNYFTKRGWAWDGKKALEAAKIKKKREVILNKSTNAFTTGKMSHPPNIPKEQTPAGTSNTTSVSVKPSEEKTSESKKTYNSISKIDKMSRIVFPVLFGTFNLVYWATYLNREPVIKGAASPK
T1 sequence (P28472 26-473 partner): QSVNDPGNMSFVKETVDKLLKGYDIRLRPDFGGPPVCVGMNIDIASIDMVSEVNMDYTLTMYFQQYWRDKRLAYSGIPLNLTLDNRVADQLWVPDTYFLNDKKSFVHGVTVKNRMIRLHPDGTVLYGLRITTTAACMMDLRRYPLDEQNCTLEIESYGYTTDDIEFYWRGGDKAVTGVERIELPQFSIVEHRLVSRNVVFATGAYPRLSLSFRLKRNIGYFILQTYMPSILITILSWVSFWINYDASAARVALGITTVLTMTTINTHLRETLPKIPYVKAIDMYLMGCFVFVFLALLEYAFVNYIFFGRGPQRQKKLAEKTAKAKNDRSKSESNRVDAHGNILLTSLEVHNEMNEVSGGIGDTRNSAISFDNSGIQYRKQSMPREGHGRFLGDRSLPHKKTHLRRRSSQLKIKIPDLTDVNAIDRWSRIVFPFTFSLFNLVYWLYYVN
T1 sequence (P18507 40-475): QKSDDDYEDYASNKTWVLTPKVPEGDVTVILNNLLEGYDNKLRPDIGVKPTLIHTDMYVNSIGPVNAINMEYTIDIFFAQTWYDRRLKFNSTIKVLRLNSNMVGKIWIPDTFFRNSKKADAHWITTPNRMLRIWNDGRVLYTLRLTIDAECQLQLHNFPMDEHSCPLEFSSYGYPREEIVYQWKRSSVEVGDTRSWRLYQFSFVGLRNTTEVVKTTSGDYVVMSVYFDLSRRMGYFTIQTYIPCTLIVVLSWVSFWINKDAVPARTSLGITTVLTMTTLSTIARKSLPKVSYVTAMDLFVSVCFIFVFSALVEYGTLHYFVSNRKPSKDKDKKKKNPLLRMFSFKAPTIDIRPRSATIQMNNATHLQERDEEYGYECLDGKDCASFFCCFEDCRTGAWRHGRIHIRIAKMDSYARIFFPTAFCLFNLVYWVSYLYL

SMILES	Ki [2] [µM]	activation at 1 µM [3, 7] [%]	further results
Cc1ccc(-n2nnc(C)c2COc2cc3c(nn2)CNCC3)cn1 [Compound 44]			cognitive performance ([1]; aged rats): improved cognitive performance
Cc1ccc(-c2noc(C)c2COc2cc3c(cn2)CN(C2CCOCC2)CC3)cn1 [Example 11, 6-{[5-methyl-3-(6-methylpyridin-3-yl)-1,2-oxazol-4-yl]methoxy}-2-(oxan-4-yl)-1,2,3,4-tetrahydro-2,7-naphthyridine]	0.0074	114	
Cc1ccc(-c2noc(C)c2COc2cc3c(cn2)CN(c2ccccn2)CC3)cn1 [Example 13, 6-{[5-methyl-3-(6-methylpyridin-3-yl)-1,2-oxazol-4-yl]methoxy}-2-(pyridin-2-yl)-1,2,3,4-tetrahydro-2,7-naphthyridine]	0.0066	129	
Cc1ccc(-c2noc(C)c2COc2cc3c(nn2)CNCC3)cn1 [Example 14, 2-methyl-5-[5-methyl-4-({5H,6H,7H,8H-pyrido[3,4-c]pyridazin-3-yloxy}methyl)-1,2-oxazol-3-yl]pyridine]	0.0032	126	
Cc1onc(-c2ccc(C(F)(F)F)nc2)c1COc1cc2c(nn1)CNCC2 [Example 15, 5-[5-methyl-4-({5H,6H,7H,8H-pyrido[3,4-c]pyridazin-3-yloxy}methyl)-1,2-oxazol-3-yl]-2-(trifluoromethyl)pyridine]	0.0171	115	
Cc1ccc(-c2noc(C)c2COc2cc3c(nn2)CN(C)CC3)cn1 [Example 16, 2-methyl-5-{5-methyl-4-[({7-methyl-5H,6H,7H,8H-pyrido[3,4-c]pyridazin-3-yl}oxy)methyl]-1,2-oxazol-3-yl}pyridine]	0.0056	146	
Cc1onc(-c2ccc(C(F)(F)F)nc2)c1COc1cc2c(nn1)CN(CC1CCS(=O)(=O)C1)CC2 (stereo not drawn) [Example 19, 3-{[3-({5-methyl-3-[6-(trifluoromethyl)pyridin-3-yl}-1,2-oxazol-4-yl]methoxy)-5H,6H,7H,8H-pyrido[3,4-c]pyridazin-7-yl]methyl}-1lambda6-thiolane-1,1-dione tartarate salt]	0.0355		activation at 1 µM [3]: 129%
Cc1ccc(-n2nnc(C)c2COc2cc3c(cn2)CNCC3)cn1 [Example 20, 6-{[4-methyl-1-(6-methylpyridin-3-yl)-1H-1,2,3-triazol-5-yl]methoxy}-1,2,3,4-tetrahydro-2,7-naphthyridine]	0.0265	111	
Cc1ccc(-n2nnc(C)c2COc2cc3c(cn2)CN(C)CC3)cn1 [Example 21, 2-methyl-6-{[4-methyl-1-(6-methylpyridin-3-yl)-1H-1,2,3-triazol-5-yl]methoxy}-1,2,3,4-tetrahydro-2,7-naphthyridine]	0.023	134	
Cc1ccc(-n2nnc(C)c2COc2cc3c(cn2)CN(C(C)C)CC3)cn1 [Example 22, 6-{[4-methyl-1-(6-methylpyridin-3-yl)-1H-1,2,3-triazol-5-yl]methoxyl}-2-(propan-2-yl)-1,2,3,4-tetrahydro-2,7-naphthyridine]	0.0227	68	
Cc1nnn(-c2ccc(C(F)F)nc2)c1COc1cc2c(cn1)CN(C)CC2 [Example 24, 6-({1-[6-(difluoromethyl)pyridin-3-yl]-4-methyl-1H-1,2,3-triazol-5-yl}methoxy)-2-methyl-1,2,3,4-tetrahydro-2,7-naphthyridine]	0.0083	88	
Cc1nnn(-c2ccc(C(F)(F)F)nc2)c1COc1cc2c(cn1)CNCC2 [Example 25, 6-({4-methyl-1-[6-(trifluoromethyl)pyridin-3-yl]-1H-1,2,3-triazol-5-yl}methoxy)-1,2,3,4-tetrahydro-2,7-naphthyridine]	0.128	73	
Cc1nnn(-c2ccc(C(F)F)nc2)c1COc1cc2c(cn1)CN(C1CCOC1)CC2 (stereo not drawn) [Example 30, 6-({1-[6-(difluoromethyl)pyridin-3-yl]-4-methyl-1H-1,2,3-triazol-5-yl}methoxy)-2-(oxolan-3-yl)-1,2,3,4-tetrahydro-2,7-naphthyridine]	0.0033	59	
Cc1ccc(-n2nnc(C)c2COc2cc3c(cn2)CN(C2COC2)CC3)cn1 [Example 31, 6-{[4-methyl-1-(6-methylpyridin-3-yl)-1H-1,2,3-triazol-5-yl]methoxy}-2-(oxetan-3-yl)-1,2,3,4-tetrahydro-2,7-naphthyridine]	0.036	115	
Cc1nnn(-c2ccc(C(F)(F)F)nc2)c1COc1cc2c(cn1)CN(C1CCOC1)CC2 (stereo not drawn) [Example 32, 6-({4-methyl-1-[6-(trifluoromethyl)pyridin-3-yl]-1H-1,2,3-triazol-5-yl}methoxy)-2-(oxolan-3-yl)-1,2,3,4-tetrahydro-2,7-naphthyridine]	0.0445	155	
Cc1ccc(-n2nnc(C)c2COc2cc3c(cn2)CN(C2CCOCC2)CC3)cn1 [Example 33, 6-{[4-methyl-1-(6-methylpyridin-3-yl)-1H-1,2,3-triazol-5-yl]methoxy}-2-(oxan-4-yl)-1,2,3,4-tetrahydro-2,7-naphthyridine]	0.0295	71	
COc1ccc(-n2nnc(C)c2COc2cc3c(cn2)CNCC3)cn1 [Example 34, 6-{[1-(6-methoxypyridin-3-yl)-4-methyl-1H-1,2,3-triazol-5-yl]methoxy}-1,2,3,4-tetrahydro-2,7-naphthyridine]	0.0516	62	
Cc1ccc(-n2nnc(C)c2COc2cc3c(nn2)CNCC3)cn1 [Example 44, 2-methyl-5-[4-methyl-5-({5H,6H,7H,8H-pyrido[3,4-c]pyridazin-3-yloxy}methyl)-1H-1,2,3-triazol-1-yl]pyridine]	0.0404	96	
Cc1ccc(-n2nnc(C)c2COc2cc3c(nn2)CN(CC2CCC2)CC3)cn1 [Example 45, 5-[5-({[7-(cyclobutylmethyl)-5H,6H,7H,8H-pyrido[3,4-c]pyridazin-3-yl]oxy}methyl)-4-methyl-1H-1,2,3-triazol-1-yl]-2-methylpyridine tartarate salt]	0.0995		activation at 1 µM [3]: 97%
Cc1ccc(-n2nnc(C)c2COc2cc3c(nn2)CN(C2CCC2)CC3)cn1 [Example 46, 5-{5-[({7-cyclobutyl-5H,6H,7H,8H-pyrido[3,4-c]pyridazin-3-yl}oxy)methyl]-4-methyl-1H-1,2,3-triazol-1-yl}-2-methylpyridine tartarate salt]	0.0615		activation at 1 µM [3]: 76%
C#Cc1ccc2c(c1)C(c1ccccc1F)=N[C@H](C)c1c(C(=O)NC)ncn1-2 [MP-III-022]			behavioural effects [4]: procognitive, anxiolytic and antidepressant effects; cognitive performance ([1]; young rats): improved cognitive performance; pathological changes of locomotor activity [5]: attenuated pathological changes of locomotor activity
C#Cc1ccc2c(c1)C(c1ccccc1F)=N[C@H](C)c1c(C(=O)OCC)ncn1-2 [SH-053-2′F—R—CH3]			behavioural effects [4]: procognitive, anxiolytic and antidepressant effects; pathological changes of locomotor activity [5]: attenuated pathological changes of locomotor activity
O=C1CN=C(c2ccccc2Cl)c2cc([N+](=O)[O-])ccc2N1 [clonazepam]			symptoms in preclinical models of ASD [6]: ameliorate symptoms

Source: patent US20250051323A1 (RICHTER GEDEON NYRT., priority 2021, published 2025)
